The numbers were not newly measured in patent US20120065140A1, “Biomarkers for the Diagnosis of Autoimmune Disease” (priority 2010, published 2012), which cites them from elsewhere.

As for `CN(Cc1cnc2nc(N)nc(N)c2n1)c1ccc(C(=O)N[C@@H](CCC(=O)O)C(=O)O)cc1` [MTX, Methotrexate], under “rheumatoid arthritis”, the onset of action was 4-6 weeks. For the same compound, the “patients having some response” value (rheumatoid arthritis patients) is on record as 70%.
